Test results as given in ChEMBL document CHEMBL1201862, “PubChem BioAssay data set” (2004).
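Grown in 96-well plates, cells were treated for 48 hours with each compound at five concentrations. Insufficient inhibition: endpoint recorded as highest concentration tested. The concentration for 50% growth inhibition is given as GI50.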 The source made the active and inactive calls. Cut-off read from the data, not from the text of the source: active = GI50 up to about 1.1 µM and inactive = higher.

Experiments:
Test in all cases: NCI anticancer screen, dose series, 48 h
[1] = tested on: BT-549
[2] = tested on: DU-145
[3] = tested on: NCI-H522
[4] = tested on: ACHN
[5] = tested on: HOP-92
[6] = tested on: SF-539
[7] = tested on: 786-0
[8] = tested on: CAKI-1
[9] = tested on: SK-MEL-2
[10] = tested on: NCI-H226
[11] = tested on: NCI-H23
[12] = tested on: EKVX
[13] = tested on: NCI-H460
[14] = tested on: IGROV-1
[15] = tested on: A498
[16] = tested on: HOP-62
[17] = tested on: KM12
[18] = tested on: HCT-15
[19] = tested on: SF-268
[20] = tested on: UO-31

Structure (SMILES): CC(C)OC(=O)c1ccc(NCc2cc(O)ccc2O)cc1
- GI50 [1]: 2.38 µM (inactive)
- GI50 [2]: 6.11 µM (inactive)
- GI50 [3]: 0.21 µM (active)
- GI50 [4]: 3.6 µM (inactive)
- GI50 [5]: 1.95 µM (inactive)
- GI50 [6]: 1.53 µM (inactive)
- GI50 [7]: 2.84 µM (inactive)
- GI50 [8]: 1.28 µM (inactive)
- GI50 [9]: 10.9 µM (inactive)
- GI50 [10]: 3.21 µM (inactive)
- GI50 [11]: 4.36 µM (inactive)
- GI50 [12]: 3.82 µM (inactive)
- GI50 [13]: 11.1 µM (inactive)
- GI50 [14]: 3.45 µM (inactive)
- GI50 [15]: 22.5 µM (inactive)
- GI50 [16]: 4.98 µM (inactive)
- GI50 [17]: 3.38 µM (inactive)
- GI50 [18]: 2.69 µM
- GI50 [19]: 4.07 µM (inactive)
- GI50 [20]: 1.51 µM (inactive)

Structure (SMILES): CC(=O)O[C@@H]1CC[C@@]2(C)C(CC[C@H]3[C@@H]4CC[C@H]([C@H](C)CCc5nc6cc(C)ccc6[nH]5)[C@@]4(C)CC[C@@H]32)C1 (stereo partly specified)
- GI50 [1]: 29.8 µM (inactive)
- GI50 [2]: 45.7 µM (inactive)
- GI50 [3]: 16.7 µM (inactive)
- GI50 [4]: 99.3 µM (inactive)
- GI50 [5]: 69.5 µM (inactive)
- GI50 [6]: > 100 µM (inactive)
- GI50 [7]: 8.69 µM (inactive)
- GI50 [8]: > 100 µM (inactive)
- GI50 [9]: 31 µM (inactive)
- GI50 [10]: 9.38 µM (inactive)
- GI50 [11]: 17.3 µM (inactive)
- GI50 [12]: 9.64 µM (inactive)
- GI50 [14]: 4.34 µM (inactive)
- GI50 [15]: 92.7 µM (inactive)
- GI50 [16]: 13.1 µM (inactive)
- GI50 [17]: 12.7 µM (inactive)
- GI50 [18]: 46.6 µM
- GI50 [19]: > 100 µM (inactive)
- GI50 [20]: 6.38 µM (inactive)

Structure (SMILES): COC(=O)C1=C(OC)[C@H]2C#C/C=C\C#C[C@@H]3Nc4c(cc(O)c5c4C(=O)c4ccccc4C5=O)[C@]24O[C@@]34[C@H]1C
- GI50 [1]: < 0.01 µM (active)
- GI50 [2]: < 0.01 µM (active)
- GI50 [3]: < 0.01 µM (active)
- GI50 [4]: < 0.01 µM (active)
- GI50 [5]: < 0.01 µM (active)
- GI50 [6]: < 0.01 µM (active)
- GI50 [7]: < 0.01 µM (active)
- GI50 [8]: < 0.01 µM (active)
- GI50 [9]: 0.0585 µM (active)
- GI50 [10]: < 0.01 µM (active)
- GI50 [11]: < 0.01 µM (active)
- GI50 [12]: < 0.012 µM (active)
- GI50 [13]: < 0.01 µM (active)
- GI50 [14]: < 0.0127 µM (active)
- GI50 [15]: < 0.01 µM (active)
- GI50 [16]: < 0.01 µM (active)
- GI50 [17]: < 0.01 µM (active)
- GI50 [18]: < 0.01 µM
- GI50 [19]: < 0.01 µM (active)
- GI50 [20]: < 0.01 µM (active)

Structure (SMILES): CS(=O)(=O)OCCN(CCOS(C)(=O)=O)c1ccc(/C=N/c2cccc(Cl)c2)cc1
- GI50 [1]: 9.98 µM (inactive)
- GI50 [2]: 1.27 µM (inactive)
- GI50 [3]: 0.724 µM (active)
- GI50 [4]: 0.181 µM (active)
- GI50 [5]: 23.8 µM (inactive)
- GI50 [6]: 3.68 µM (inactive)
- GI50 [7]: 0.813 µM (active)
- GI50 [8]: 0.239 µM (active)
- GI50 [9]: 23.8 µM (inactive)
- GI50 [10]: 2.06 µM (inactive)
- GI50 [11]: 1.66 µM (inactive)
- GI50 [12]: 7.36 µM (inactive)
- GI50 [13]: 0.269 µM (active)
- GI50 [14]: 15.5 µM (inactive)
- GI50 [15]: 5.38 µM (inactive)
- GI50 [16]: 7.23 µM (inactive)
- GI50 [17]: 13.4 µM (inactive)
- GI50 [18]: 1.02 µM
- GI50 [19]: 7.55 µM (inactive)
- GI50 [20]: 1.6 µM (inactive)

Structure (SMILES): COc1cc(/C=C2\C(=O)N(c3ccccc3)C(c3ccccc3)S2(=O)=O)cc(OC)c1OC (stereo unspecified)
- GI50 [1]: 35.6 µM (inactive)
- GI50 [2]: 37.9 µM (inactive)
- GI50 [3]: 29.7 µM (inactive)
- GI50 [4]: > 100 µM (inactive)
- GI50 [5]: 33 µM (inactive)
- GI50 [6]: 45.1 µM (inactive)
- GI50 [7]: 69.5 µM (inactive)
- GI50 [8]: 88.7 µM (inactive)
- GI50 [9]: 42.6 µM (inactive)
- GI50 [10]: 46.8 µM (inactive)
- GI50 [11]: 39.1 µM (inactive)
- GI50 [12]: 24.2 µM (inactive)
- GI50 [13]: 54 µM (inactive)
- GI50 [15]: > 100 µM (inactive)
- GI50 [16]: 70.6 µM (inactive)
- GI50 [17]: 38.4 µM (inactive)
- GI50 [18]: 37.9 µM
- GI50 [19]: > 100 µM (inactive)
- GI50 [20]: 22.9 µM (inactive)

Structure (SMILES): COc1ccc(C(O)CNC(=O)c2ccccc2)cc1 (stereo unspecified)
- GI50 [1]: > 100 µM (inactive)
- GI50 [2]: > 100 µM (inactive)
- GI50 [3]: > 100 µM (inactive)
- GI50 [4]: > 100 µM (inactive)
- GI50 [5]: > 100 µM (inactive)
- GI50 [6]: > 100 µM (inactive)
- GI50 [7]: > 100 µM (inactive)
- GI50 [8]: > 100 µM (inactive)
- GI50 [9]: > 100 µM (inactive)
- GI50 [10]: > 100 µM (inactive)
- GI50 [11]: > 100 µM (inactive)
- GI50 [12]: > 100 µM (inactive)
- GI50 [13]: > 100 µM (inactive)
- GI50 [14]: > 100 µM (inactive)
- GI50 [15]: > 100 µM (inactive)
- GI50 [16]: > 100 µM (inactive)
- GI50 [17]: > 100 µM (inactive)
- GI50 [18]: > 100 µM
- GI50 [19]: > 100 µM (inactive)

Structure (SMILES): O=c1[nH]cnc2c1ncn2[C@@H]1C[C@@H]1CO
- GI50 [1]: > 100 µM (inactive)
- GI50 [2]: > 100 µM (inactive)
- GI50 [3]: > 100 µM (inactive)
- GI50 [4]: > 100 µM (inactive)
- GI50 [5]: > 100 µM (inactive)
- GI50 [6]: > 100 µM (inactive)
- GI50 [7]: > 100 µM (inactive)
- GI50 [8]: > 100 µM (inactive)
- GI50 [9]: > 100 µM (inactive)
- GI50 [10]: > 100 µM (inactive)
- GI50 [11]: > 100 µM (inactive)
- GI50 [12]: > 100 µM (inactive)
- GI50 [13]: > 100 µM (inactive)
- GI50 [14]: > 100 µM (inactive)
- GI50 [15]: > 10 µM (inactive)
- GI50 [16]: > 100 µM (inactive)
- GI50 [17]: > 100 µM (inactive)
- GI50 [18]: > 100 µM
- GI50 [19]: > 100 µM (inactive)
- GI50 [20]: > 100 µM (inactive)

Structure (SMILES): CC1(C)OCC(CO)(Nc2nc(N3CC3)nc(N3CC3)n2)CO1
- GI50 [1]: 26.1 µM (inactive)
- GI50 [2]: 1.3 µM (inactive)
- GI50 [3]: 13.2 µM (inactive)
- GI50 [4]: 1.42 µM (inactive)
- GI50 [5]: 15.3 µM (inactive)
- GI50 [6]: 4.18 µM (inactive)
- GI50 [7]: 3.88 µM (inactive)
- GI50 [8]: 1.52 µM (inactive)
- GI50 [9]: 19 µM (inactive)
- GI50 [10]: 8.13 µM (inactive)
- GI50 [11]: 4.12 µM (inactive)
- GI50 [12]: 32 µM (inactive)
- GI50 [13]: 0.38 µM (active)
- GI50 [14]: 20.6 µM (inactive)
- GI50 [15]: 10.2 µM (inactive)
- GI50 [16]: 5.53 µM (inactive)
- GI50 [17]: 16.3 µM (inactive)
- GI50 [18]: 15.2 µM
- GI50 [19]: 4.07 µM (inactive)
- GI50 [20]: 8.95 µM (inactive)

Structure (SMILES): CC(C)C[C@H](NC(=O)CCc1ccccc1)B(O)O
- GI50 [1]: 17.5 µM (inactive)
- GI50 [2]: 60.8 µM (inactive)
- GI50 [3]: 11.7 µM (inactive)
- GI50 [4]: 5.79 µM (inactive)
- GI50 [5]: 29.4 µM (inactive)
- GI50 [6]: 4.54 µM (inactive)
- GI50 [7]: 12.3 µM (inactive)
- GI50 [8]: 5.08 µM (inactive)
- GI50 [9]: 12.7 µM (inactive)
- GI50 [10]: 1.62 µM (inactive)
- GI50 [11]: 16.5 µM (inactive)
- GI50 [12]: 42.1 µM (inactive)
- GI50 [13]: 19 µM (inactive)
- GI50 [14]: 23.2 µM (inactive)
- GI50 [15]: 3.19 µM (inactive)
- GI50 [16]: 16.8 µM (inactive)
- GI50 [17]: 16.7 µM (inactive)
- GI50 [18]: 17.3 µM
- GI50 [19]: 10.1 µM (inactive)
- GI50 [20]: 15.8 µM (inactive)

Structure (SMILES): NS(=O)(=O)c1nnc(NC(=O)c2ccccc2)s1
- GI50 [1]: > 100 µM (inactive)
- GI50 [2]: > 100 µM (inactive)
- GI50 [3]: > 100 µM (inactive)
- GI50 [4]: > 100 µM (inactive)
- GI50 [5]: 65.3 µM (inactive)
- GI50 [6]: > 100 µM (inactive)
- GI50 [7]: > 100 µM (inactive)
- GI50 [8]: > 100 µM (inactive)
- GI50 [9]: > 100 µM (inactive)
- GI50 [10]: > 100 µM (inactive)
- GI50 [11]: > 100 µM (inactive)
- GI50 [12]: > 100 µM (inactive)
- GI50 [13]: > 100 µM (inactive)
- GI50 [15]: > 100 µM (inactive)
- GI50 [16]: > 100 µM (inactive)
- GI50 [17]: > 100 µM (inactive)
- GI50 [18]: > 100 µM
- GI50 [19]: > 100 µM (inactive)
- GI50 [20]: > 100 µM (inactive)
